Results taken from ChEMBL document CHEMBL1156082, “Novel orally active morpholine N-arylsulfonamides gamma-secretase inhibitors with low CYP 3A4 liability” (Bioorg Med Chem Lett, 2009).

System: not listed separately
Test: AUC (0 to 6 hrs) in rat blood at 10 mg/kg, po
Format: ADME, organism-based
Design: time < 6 hr, dose 10 mg/kg, route oral
Conditions: not given

Point of comparison: CC(=O)N1C2CCC1CN(C(=O)OC1([C@H]3CO[C@H](C)[C@@H](C4CC4)N3S(=O)(=O)c3ccc(Cl)cc3)CC1)C2, AUC(0-t) at 6 h 23 ng·h/mL. Against it:
- O=C(OC1([C@H]2COC[C@@H](C3CC3)N2S(=O)(=O)c2ccc(Cl)cc2)CC1)N1CC2CCC(C1)N2CCO — 83-fold higher, 1920 ng·h/mL

Molecular target: not listed separately
Test: Inhibition of gamma-secretase assessed as reduction in membrane amyloid beta40 production
Conditions: not given

Point of comparison: C[C@@H]1CN(C(=O)OC2([C@H]3COC[C@@H](c4cc(F)cc(F)c4)N3S(=O)(=O)c3ccc(Cl)cc3)CC2)CCN1CCO, IC50 5.5 nM. Against it:
- CS(=O)(=O)N1C2CCC1CN(C(=O)OC1([C@H]3COC[C@@H](C4CC4)N3S(=O)(=O)c3ccc(Cl)cc3)CC1)C2 — 7.5-fold higher, 41 nM
- CC(C)(CO)N1CCN(C(=O)OC2([C@H]3COC[C@@H](c4cc(F)cc(F)c4)N3S(=O)(=O)c3ccc(Cl)cc3)CC2)CC1 — 3.9-fold lower, 1.4 nM
- O=C(O)CC1CCN(C(=O)OC2([C@H]3COC[C@@H](C4CC4)N3S(=O)(=O)c3ccc(Cl)cc3)CC2)CC1 — 4.4-fold higher, 24 nM
- O=C(OC[C@H]1COC[C@@H](c2cc(F)cc(F)c2)N1S(=O)(=O)c1ccc(Cl)cc1)N1CCN(CCO)CC1 — 14-fold higher, 76 nM
- C[C@@H]1CN(C(=O)OC2([C@H]3COC[C@@H](C4CC4)N3S(=O)(=O)c3ccc(Cl)cc3)CC2)CCN1CCO — 6.7-fold higher, 37 nM
- O=C(OC1([C@H]2COC[C@@H](c3cc(F)cc(F)c3)N2S(=O)(=O)c2ccc(Cl)cc2)CC1)N1CC[C@H](O)C1 — 2.2-fold higher, 12 nM
- O=C(OC1([C@H]2COC[C@@H](C3CC3)N2S(=O)(=O)c2ccc(Cl)cc2)CC1)N1CC[C@H](O)C1 — 4.9-fold higher, 27 nM
- C[C@@H]1OC[C@H](C2(OC(=O)N3CC4CCC(C3)N4CCO)CC2)N(S(=O)(=O)c2ccc(Cl)cc2)[C@@H]1C1CC1 — 3.7-fold lower, 1.5 nM
- O=C(OC[C@H]1CCC[C@@H](c2cc(F)cc(F)c2)N1S(=O)(=O)c1ccc(Cl)cc1)N1CCN(CCO)CC1 — 7.5-fold higher, 41 nM
- CC(C)(C(=O)O)C1CCN(C(=O)OC2([C@H]3COC[C@@H](C4CC4)N3S(=O)(=O)c3ccc(Cl)cc3)CC2)CC1 — 5.5-fold higher, 30 nM
- C[C@H]1OC[C@H](C2(OC(=O)N3CC4CCC(C3)N4CCO)CC2)N(S(=O)(=O)c2ccc(Cl)cc2)[C@@H]1C1CC1 — 6.1-fold lower, 0.9 nM
- O=C(OC1([C@H]2COC[C@@H](C3CC3)N2S(=O)(=O)c2ccc(Cl)cc2)CC1)N1CC2CCC(C1)N2CCO — within 1.5-fold, 7.9 nM
- CC(=O)N1C2CCC1CN(C(=O)OC1([C@H]3CO[C@H](C)[C@@H](C4CC4)N3S(=O)(=O)c3ccc(Cl)cc3)CC1)C2 — within 1.5-fold, 4 nM

System: not listed separately
Test: Inhibition of gamma-secretase assessed as reduction in cell amyloid beta40 production
Conditions: not given

Point of comparison: O=C(OC[C@H]1COC[C@@H](c2cc(F)cc(F)c2)N1S(=O)(=O)c1ccc(Cl)cc1)N1CCN(CCO)CC1, IC50 95 nM. Against it:
- O=C(OC1([C@H]2CCC[C@@H](c3cc(F)cc(F)c3)N2S(=O)(=O)c2ccc(Cl)cc2)CC1)N1CCN(CCO)CC1 — 19-fold lower, 5 nM
- O=C(OC[C@H]1CCC[C@@H](c2cc(F)cc(F)c2)N1S(=O)(=O)c1ccc(Cl)cc1)N1CCN(CCO)CC1 — 1.8-fold higher, 167 nM
- O=C(OC1([C@H]2COC[C@@H](C3CC3)N2S(=O)(=O)c2ccc(Cl)cc2)CC1)N1CC2CCC(C1)N2CCO — 6.3-fold lower, 15 nM

System: Mus musculus
Test: Reduction of amyloid beta40 level in TgCRND8 mouse plasma at 30 mg/kg, sc after 3 hrs
Format: functional
Design: scale not given: the % may be the effect or the level left
Conditions: route subcutaneous

Point of comparison: O=C(OC1([C@H]2COC[C@@H](C3CC3)N2S(=O)(=O)c2ccc(Cl)cc2)CC1)N1CC2CCC(C1)N2CCO, Activity -93%. Against it:
- CC(C)(CO)N1CCN(C(=O)OC2([C@H]3COC[C@@H](c4cc(F)cc(F)c4)N3S(=O)(=O)c3ccc(Cl)cc3)CC2)CC1 — higher, -68%
- O=C(OC1([C@H]2COC[C@@H](c3cc(F)cc(F)c3)N2S(=O)(=O)c2ccc(Cl)cc2)CC1)N1CC[C@H](O)C1 — higher, 21%
- C[C@@H]1CN(C(=O)OC2([C@H]3COC[C@@H](c4cc(F)cc(F)c4)N3S(=O)(=O)c3ccc(Cl)cc3)CC2)CCN1CCO — higher, -87%

System: not listed separately
Test: Drug level in rat brain at 10 mg/kg, po
Format: ADME, organism-based
Design: dose 10 mg/kg, route oral
Conditions: not given

Point of comparison: O=C(O)CC1CCN(C(=O)OC2([C@H]3COC[C@@H](C4CC4)N3S(=O)(=O)c3ccc(Cl)cc3)CC2)CC1, AUC 2460 ng·h/mL. Against it:
- CC(C)(C(=O)O)C1CCN(C(=O)OC2([C@H]3COC[C@@H](C4CC4)N3S(=O)(=O)c3ccc(Cl)cc3)CC2)CC1 — 3.5-fold lower, 703 ng·h/mL

System: Mus musculus
Test: Reduction of amyloid beta40 level in TgCRND8 mouse plasma drug dosed po once daily for 5 days
Format: functional
Conditions: 120 h

O=C(OC1([C@H]2COC[C@@H](C3CC3)N2S(=O)(=O)c2ccc(Cl)cc2)CC1)N1CC2CCC(C1)N2CCO gave an ED50 of 10 mg/kg.

System: Mus musculus
Test: Reduction of amyloid beta40 level in TgCRND8 mouse brain drug dosed po once daily for 5 days
Format: functional
Conditions: 120 h

O=C(OC1([C@H]2COC[C@@H](C3CC3)N2S(=O)(=O)c2ccc(Cl)cc2)CC1)N1CC2CCC(C1)N2CCO gave an ED50 of 100 mg/kg.

System: not listed separately
Test: Inhibition of gamma-secretase-mediated notch processing by whole cell assay
Conditions: not given

Work on O=C(OC1([C@H]2COC[C@@H](C3CC3)N2S(=O)(=O)c2ccc(Cl)cc2)CC1)N1CC2CCC(C1)N2CCO yielded an IC50 of 194 nM.

System: not listed separately
Test: Ratio of IC50 for gamma-secretase-mediated notch processing to IC50 for gamma-secretase assessed as reduction in cell amyloid beta40 production
Conditions: not given

O=C(OC1([C@H]2COC[C@@H](C3CC3)N2S(=O)(=O)c2ccc(Cl)cc2)CC1)N1CC2CCC(C1)N2CCO showed a Ratio IC50 of 13.
